These results are taken from US20020094522A1, “Means and methods for monitoring non-nucleoside reverse transcriptase inhibitor antiretroviral therapy and guiding therapeutic decisions in the treatment of HIV/AIDS” (priority 2000, published 2002).

Experiment [1] deals with Y181I-RTV (HIV reverse transcriptase Y181I). The text has this: (§1) The resistance test vectors containing a functional luciferase gene cassette were constructed and host cells were transfected with the resistance test vector DNA. The resistant test vectors contained patient-derived reverse transcriptase and protease sequences that were either susceptible or resistant to the antiretroviral agents, such as nucleoside reverse transcriptase inhibitors, non-nucleoside reverse transcriptase inhibitors and protease inhibitors. The resistance test vector viral particles produced by transfecting the resistance test vector DNA into host cells, either in the presence or absence of protease inhibitors, were used to infect target host cells grown either in the absence of NRTI or NNRTI or in the presence of increasing concentrations of the drug. The amount of luciferase activity produced in infected target host cells in the presence of drug was compared to the amount of luciferase produced in infected target host cells in the absence of drug. Drug resistance was measured as the amount of drug required to inhibit by 50% the luciferase activity detected in the absence of drug (inhibitory concentration 50%, IC50). The IC50 values were determined by plotting percent drug inhibition vs. log10 drug concentration.
(§2) Host cells were seeded in 10-cm-diameter dishes and were transfected several days after plating with resistance test vector plasmid DNA and the envelope expression vector. Transfections were performed using a calcium-phosphate precipitation procedure. The cell culture media containing the DNA precipitate was replaced with fresh medium, from one to 24 hours, after transfection. Cell culture media containing resistance test vector viral particles was harvested one to four days after transfection and was passed through a […] filter before being stored at −80° C. HIV capsid protein (p24) levels in the harvested cell culture media were determined by an EIA method as described by the manufacturer (SIAC; Frederick, Md.). Before infection, target cells (293 and 293/T) were plated in cell culture media. Control infections were performed using cell culture media from mock transfections (no DNA) or transfections containing the resistance test vector plasmid DNA without the envelope expression plasmid. One to three or more days after infection the media was removed and cell lysis buffer (Promega) was added to each well. […] The inhibitory effect of the drug was determined using the following equation: […]
(§3) where RLUluc [drug] is the relative light unit of luciferase activity in infected cells in the presence of drug and RLUluc is the Relative Light Unit of luciferase activity in infected cells in the absence of drug. IC50 values were obtained from the sigmoidal curves that were generated from the data by plotting the percent inhibition of luciferase activity vs. the log10 drug concentration.

Experiment [2] deals with V108I -RTV (HIV reverse transcriptase V108I).
Text: as §1, §2, §3

Experiment [3] deals with A98G-RTV (HIV reverse transcriptase A98G).
Text: as §1, §2, §3

Another experiment relates to Y181C-A98G-RTV.
Text: as §1, §2, §3

Experiment [4] has as its system Y188C-RTV (HIV reverse transcriptase Y188C).
Text: as §1, §2, §3

Another experiment relates to E138A-Y188L-RTV. As to the kind of experiment: Phenotypic susceptibility assay, E138A-Y188L-RTV. It counts as cell-based, HIV-1. Conditions: site directed mutant.
Text: as §1, with “Drug resistance was measured as the amount of drug required to inhibit by 50% the luciferase activity detected in the absence of drug (inhibitory concentration 50%, IC50).” left out
Host cells were seeded in 10-cm-diameter dishes and were transfected several days after plating with resistance test vector plasmid DNA and the envelope expression vector. […] HIV capsid protein (p24) levels in the harvested cell culture media were determined by an EIA method as described by the manufacturer (SIAC; Frederick, Md.). […] The inhibitory effect of the drug was determined using the following equation: […]
The E138A mutation alone and in combination with Y188L was introduced into resistance test vectors using the megaprimer method for site-directed mutagenesis (Sakar and Sommar, Ibid.). Resistance test vectors containing the E138A mutation (E138A-RTV) or the E138 mutation along with the […] mutation (E138A-Y188L-RTV) were then tested using the phenotypic assay described earlier and the results were compared to those determined using a genetically defined resistance test vector that was wild type at positions 188 and 138.

The next experiment has as its system V106A-Y181C-RTV. The experiment can be described thus: Phenotypic susceptibility assay, V106A-Y181C-RTV. Conditions: site directed mutant. It counts as cell-based, HIV-1.
Text: as §1
as §2, with “Md.).” for “Md.). Before infection, target cells (293 and 293/T) were plated in cell culture media. Control infections were performed using cell culture media from mock transfections (no DNA) or transfections containing the resistance test vector plasmid DNA without the envelope expression plasmid. One to three or more days after infection the media was removed and cell lysis buffer (Promega) was added to each well.”

For experiment [5], the system named is RTV-B clone 1 (patient sample B). As to the kind of experiment: Phenotypic susceptibility assay, RTV-B clone 1. It counts as cell-based, HIV-1. The conditions noted are these: values <1 = increased susceptibility.
Text: as §1
as §2, with “Md.).” for “Md.). Before infection, target cells (293 and 293/T) were plated in cell culture media. Control infections were performed using cell culture media from mock transfections (no DNA) or transfections containing the resistance test vector plasmid DNA without the envelope expression plasmid. One to three or more days after infection the media was removed and cell lysis buffer (Promega) was added to each well.”

Experiment [6] deals with K101E-RTV (HIV reverse transcriptase K101E). The experiment can be described thus: Phenotypic susceptibility assay, K101E-RTV. It counts as cell-based, HIV-1.
Text: as §1, §2, §3
The K101E and G190S mutations were introduced alone and in combination into resistance test vectors using the mega-primer method for site-directed mutagenesis (Sakar and Sommar, Ibid.). Resistance test vectors containing the K101E mutation (K101E-RTV), the G190S mutation (G190S-RTV) were then tested using the phenotypic assay described earlier and the results were compared to those determined using a genetically defined resistance test vector that was wild type at positions 101 and 190. […]

The subject of the next experiment is K103N-G190A-RTV.
Text: as §1, §2, §3
(§4) The K101E, K103N and G190A mutations were introduced alone and in combination into resistance test vectors using the mega-primer method for site-directed mutagenesis (Sakar and Sommar, Ibid.).

In another experiment the test system is K101E-G190A-RTV.
Text: as §1, §2, §3, §4

Experiment [7] has as its system T66I integrase site-directed mutant resistance test vector. As to the kind of experiment: Phenotypic susceptibility assay, T66I integrase mutant vector. It is filed as cell-based, HIV. The conditions noted are these: {}. The protocol:
Transfections were performed using a calcium-phosphate precipitation procedure. […] Cell lysates were assayed for luciferase activity (FIG. 3).
The drug inhibition curves are shown in (FIG. 3).
A resistance test vector containing the threonine to isoleucine mutation at position 66 of the integrase protein (T66I) was constructed and tested using the phenotypic assay described earlier.

For a further experiment, the system named is K101E-G190S-RTV. The experiment can be described thus: Phenotypic susceptibility assay, K101E-G190S-RTV. It counts as cell-based, HIV-1.
Text: as §1, §2, §3
The K101E and G190S mutations were introduced alone and in combination into resistance test vectors using the mega-primer method for site-directed mutagenesis (Sakar and Sommar, Ibid.). Resistance test vectors containing the K101E mutation (K101E-RTV), the G190S mutation (G190S-RTV) were then tested using the phenotypic assay described earlier and the results were compared to those determined using a genetically defined resistance test vector that was wild type at positions 101 and 190.

Setting [8] is: printed in the K101E-RTV sentence of b302, second set of values.
[9] abbreviates: values <1 = increased susceptibility.

Read-outs that look alike come from different tables or passages of the source.

With `Cc1ccnc2c1NC(=O)c1cccnc1N2C1CC1` [nevirapine], the “fold loss of susceptibility compared to wild type control RTV” value (“fold loss of susceptibility” for short) in [1] is on record as 740 fold; in [3], 8 fold; in the experiment on Y181C-A98G-RTV, “greater than 800 fold”; in experiment [4], 30 fold; with E138A-Y188L-RTV, “greater than 800 fold”; in the experiment with V106A-Y181C-RTV it was “greater than 800 fold”. Moreover, the “fold loss of susceptibility” value in experiment [6] (setting [8]) was 55 fold; in [6] ({}), 12 fold; in the experiment on K103N-G190A-RTV, “greater than 800 fold”; in the experiment on K101E-G190A-RTV, “greater than 800 fold”. Also, the “fold change in susceptibility compared to wild type control RTV” value (shortened to “fold change … to wild type control RTV”) in experiment [2] is 3 fold; in the experiment on K101E-G190S-RTV, “greater than 800 fold”; in the experiment with K101E-G190S-RTV (setting [9]), 75 fold. For the same compound, in experiment [5], the “fold change in susceptibility (IC50)” value was 640 fold. For the same compound, the “increase in susceptibility compared to wild type control RTV” value (from here on “increase in susceptibility”) in [7] is on record as 8-10 fold.

As for `CC(C)Nc1cccnc1N1CCN(C(=O)c2cc3cc(NS(C)(=O)=O)ccc3[nH]2)CC1` [delavirdine], the “fold loss of susceptibility” value came out at 20 fold in [1]; 3 fold in experiment [3]; 240 fold in the experiment with Y181C-A98G-RTV; 3 fold in [4]; 75 fold in the experiment on E138A-Y188L-RTV; 100 fold in the experiment with V106A-Y181C-RTV. The results for the “fold loss of susceptibility” value (in experiment [6] ({}); in the experiment with K103N-G190A-RTV; in the experiment on K101E-G190A-RTV) were 5 fold, 40 fold and 2 fold, respectively. For the same compound, the “fold change … to wild type control RTV” value in [2] was 1.3 fold; in the experiment with K101E-G190S-RTV it was 1.4 fold; in the experiment on K101E-G190S-RTV (setting [9]), 0.5 fold. In experiment [5], the “fold change in susceptibility (IC50)” value is 0.55 fold. Further, the “increase in susceptibility” value in experiment [7] is on record as 8-10 fold.

For `O=C1Nc2ccc(Cl)cc2[C@@](C#CC2CC2)(C(F)(F)F)O1` [efavirenz], the “fold loss of susceptibility” value in [1] came out at 1.4 fold; in experiment [3], 3 fold; with Y181C-A98G-RTV it was 7 fold; in [4], 20 fold; in the experiment on E138A-Y188L-RTV it was 88 fold; with V106A-Y181C-RTV, 4 fold. The “fold loss of susceptibility” value was found to be 30 fold in experiment [6] (setting [8]), 5 fold in experiment [6] ({}), 215 fold in the experiment on K103N-G190A-RTV and 120 fold in the experiment with K101E-G190A-RTV. The “fold change … to wild type control RTV” value is 1.7 fold in experiment [2], “greater than 250 fold” in the experiment on K101E-G190S-RTV and 7.6 fold in the experiment with K101E-G190S-RTV (setting [9]). Moreover, the “fold change in susceptibility (IC50)” value in experiment [5] is listed as 250 fold. The “increase in susceptibility” value in experiment [7] is 8-10 fold.
